Experiments:
[1] = test system: Human lung adenocarcinoma A549 cell; experiment: TEST 2: in vitro cytotoxicity of WF 2015, A549 cells; format: cell-based; details: 120 hours incubation, 37° C.
Experimental: (§1) Human lung adenocarcinoma A549 cell and mouse lymphoma EL-4 cell were used in this study. A549 cells were propagated as monolayer culture in Dulbecco's medium supplemented with 10% heat inactivated fetal bovine serum (FBS), penicillin G (60 μg/ml) and streptomycin (20 μg/ml) and harvested by trypsinization. EL-4 cells were maintained in RPMI medium supplemented with 10% FBS and the antibiotics in culture flasks.
(§2) Exponentially growing cells of A 549 or EL-4, which harvested from the cultures, were suspended in flask in the appropriate medium (Dulbecco's or RPMI medium supplemented with 10% FBS and antibiotics) at a concentration of 2×10^4 cells/ml or 2×10^5 cells/ml. respectively. Cells were treated with the graded doses of WF 2015 in plastic tissue culture dishes.
(§3) Concentration of the substance required for 50% inhibition of cell growth (IC50 value, μg/ml) was determined by plotting the logarithm of the drug concentration versus the growth rate (percentage of control) of the treated cells after 120 hours incubation for A 549 cells and 48 hours incubation for EL-4 cells at 37° C. in humidified atmosphere of 5% carbon dioxide.

[2] = test system: Mouse fibrosarcoma Meth A; experiment: TEST 1: antitumor activity of WF 2015 A in experimental tumor system in mice (Meth A); format: in vivo, mouse (Balb/c); details: at 14 days, mean ± S.E., n = 5, Control 1136.6 ± 138.3
Experimental: The antitumor activity of WF 2015 A was determined in experimental tumor system in mice.
Mouse fibrosarcoma Meth A was implanted intradermally into Balb/c mice (female, 8 weeks age) at an inoculum size of 1×10^5 cells per mouse. Twenty-four hours after the implantation of tumor cells, graded doses of WF 2015 A were administered to the mice intravenously. Treatments were once a day on day 1, 2, 3, 4 and 7, 8, 9, 10 after the tumor inoculation. Control animals received intravenous doses of physiological saline solution. The injection volume was 0.2 ml in all experiments. Five mice were used for each experimental group.
Tumor weight at 14 days after administration, as derived from caliper measurements of the length and width of tumors, was calculated by the formula: Tumor weight (mg)=1/2×a×b^2, where a represents the length and b represents the width (mm).

[3] = test system: C57BL/6 responder cells (mixed lymphocyte reaction); experiment: TEST 4: suppression of in vitro mixed lymphocyte reaction (MLR); format: cell-based, mouse (C57BL/6, BALB/C); details: 4080 min
Experimental: The MLR tests were carried out in microtiter plates, with each well containing specified concentration of WF 2015 A and 5×10^5 C57BL/6 responder cells (H-2^b), 5×10^5 mitomycin C treated (25 μg/ml mitomycin C at 37° C. for 30 minutes) BALB/C stimulator cells (H-2^d) in 0.2 ml RPMI 1640 medium, supplemented with 10% fetal calf serum, 2mM glutamine, 3×10^-5 M 2-mercaptoethanol, 24 mM sodium bicarbonate, penicillin (50 unit/ml) and streptomycin (50 μ/ml). The cells were incubated at 37° C. in a humidified atmosphere of 5% CO2 :95% air for 68 hours and pulsed with ^3 H-thymidine (0.5 μCi) 4 hours before the cells were collected. Radio-activity of the cells was assayed by B-counter. From the resultant data, MLR suppression (%) was calculated.

[4] = test system: Human MX-1 mammary; experiment: TEST 5: antitumor activity in vivo (human MX-1 mammary in nude mice); design: species or system human tumor in BALB/c nu/nu mice; details: day 0→4, 7→11, 14→18, evaluated day 21, n = 8
Experimental: Human MX-1 mammary (each fragment, 3×3×3 mm), maintained s.c. by serial passage in female BALB/c nu/nu mice aged 6 weeks was implanted s.c. to female BALB/c nu/nu mice on day 0, and WF 2015 A or vehicle were given i.v. to the mice once a day on specified days (day0→4, day 7→11 and day 14→18).
Tumor weight was calculated as follows: (Tumor length and width were measured by caliper.)
Tumor weight (mg)=1/2×a×b^2, where a represents length and b represents width (mm).
Tumor weights (initial) and (last) were calculated on the first injection day (just before dosing) and on day 21, (the last evaluation day), respectively.
Eight mice were used for each test group and each vehicle-treated control group, respectively.
Drug efficacy was expressed as tumor growth inhibition (%).

[5] = test system: ICR strain mice; experiment: TEST 3: acute toxicity of WF 2015 in mice; format: in vivo, mouse (ICR); details: 100 mg/kg once a day for 5 days, 5 female ICR mice
[6] = test system: mouse lymphoma EL-4 cell; experiment: TEST 2: in vitro cytotoxicity of WF 2015, EL-4 cells; format: cell-based; details: 48 hours incubation, 37° C.
Experimental: as §1, §2, §3

[7] = Solubility of WF 2015 A and B (physicochemical properties)

Compound: CO[C@@H]1[C@H](OC(=O)/C=C/C(O)C(C)O)CC[C@]2(CO2)[C@H]1[C@@]1(C)O[C@@H]1CC=C(C)C (some centres unmarked) [WF 2015 A]
- IC50 value (concentration required for 50% inhibition of cell growth) [1]: 0.3 ng/mL
- Tumor weight ([2]; 1.0 mg/kg i.v. once a day on day 1, 2, 3, 4 and 7, 8, 9, 10): 864 ± 108.7 mg
- Tumor weight ([2]; 3.3 mg/kg i.v. once a day on day 1, 2, 3, 4 and 7, 8, 9, 10): 682 ± 131.5 mg
- Tumor weight ([2]; 10 mg/kg i.v. once a day on day 1, 2, 3, 4 and 7, 8, 9, 10): 27.7 ± 105.6 mg
- MLR suppression (%) ([3]; 0.0066 ng/ml): 0.0%
- MLR suppression (%) ([3]; 0.02 ng/ml): 0.4%
- MLR suppression (%) ([3]; 0.066 ng/ml): 8.5%
- MLR suppression (%) ([3]; 0.2 ng/ml): 9.4%
- MLR suppression (%) ([3]; 6.6 ng/ml): 49.1%
- MLR suppression (%) ([3]; 20 ng/ml): 86.2%
- MLR suppression (%) ([3]; 40 ng/ml): 88.0%
- MLR suppression (%) ([3]; 161 ng/ml): 87.3%
- MLR suppression (%) ([3]; 1,250 ng/ml): 89.0%
- MLR suppression (%) ([3]; 10,000 ng/ml): 94.4%
- Tumor Growth Inhibition (%) ([4]; 10 mg/kg i.v. once a day): 41.2%
- Tumor Growth Inhibition (%) ([4]; 30 mg/kg i.v. once a day): 62.6%
- Acute toxicity, abnormal symptom of the mice [5]: no abnormal symptom of the mice was observed
- IC50 value (concentration required for 50% inhibition of cell growth) [6]: 0.65 ng/mL
- Solubility ([7]; Chloroform, methanol, acetone, ethanol): Soluble
- Solubility ([7]; n-Hexane, water): Insoluble

From patent US4910017A, “New compounds WF 2015 A and B” (Fujisawa Pharmaceutical Company, Ltd., priority 1987, dated 1990)
